Data as given in the supplement of paper PMC10307832.

Columns and labels:
Assay in all cases: relative viability (nuclei count vs DMSO), 5 days (fraction); higher = more cells survive
[1] = compound: CN[C@@H]1C[C@H]2O[C@@](C)([C@@H]1OC)n1c3ccccc3c3c4c(c5c6ccccc6n2c5c31)C(=O)NC4 [Staurosporine] + CC1(C)CCC(c2ccc(Cl)cc2)=C(CN2CCN(c3ccc(C(=O)NS(=O)(=O)c4ccc(N[C@H](CCN5CCOCC5)CSc5ccccc5)c(S(=O)(=O)C(F)(F)F)c4)cc3)CC2)C1 [Navitoclax] (partner 0.5 µM)
Summary of the method: (§1)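 After 5 days of treatment, lung cancer cells in 1536-well plates were fixed and stained in a single step (final 0.05% Triton X-100, 1% formaldehyde, 1 ug/ml Hoechst) and their nuclei counted on 4× images. Treatment had been applied by pin tool the day after seeding as one drug alone or as a fixed anchor-drug dose with five library-drug doses (not always all listed) in √10 steps. Relative viability is the nuclei count of treated wells divided by that of vehicle wells, and values are medians of duplicate plates.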

Sulindac + Decitabine = compound: CC1=C(CC(=O)O)c2cc(F)ccc2/C1=C\c1ccc([S+](C)[O-])cc1 [Sulindac] + Nc1ncn([C@H]2C[C@H](O)[C@@H](CO)O2)c(=O)n1 [Decitabine] (partner 2 µM)
Summary of the method: as §1

[2] = compound: O=c1[nH]cc(F)c(=O)[nH]1 [5-Fluorouracil] + CS(=O)(=O)N1CCN(Cc2cc3nc(-c4cccc5[nH]ncc45)nc(N4CCOCC4)c3s2)CC1 [Pictilisib] (partner 1 µM)
Summary of the method: as §1

Sulindac + Dasatinib = compound: CC1=C(CC(=O)O)c2cc(F)ccc2/C1=C\c1ccc([S+](C)[O-])cc1 [Sulindac] + Cc1nc(Nc2ncc(C(=O)Nc3c(C)cccc3Cl)s2)cc(N2CCN(CCO)CC2)n1 [Dasatinib] (partner 0.075 µM)
Summary of the method: as §1

UMC-11
relative viability ([1]; first compound 0.005 µM): 0.265
relative viability ([1]; first compound 0.01581 µM): 0.158
relative viability ([1]; first compound 0.05 µM): 0.141
relative viability ([1]; first compound 0.1581 µM): 0.106
relative viability ([1]; first compound 0.5 µM): 0.103
relative viability (Sulindac + Decitabine; first compound 0.08 µM): 0.595
relative viability (Sulindac + Decitabine; first compound 0.253 µM): 0.627
relative viability (Sulindac + Decitabine; first compound 0.8 µM): 0.535
relative viability (Sulindac + Decitabine; first compound 2.53 µM): 0.584
relative viability (Sulindac + Decitabine; first compound 8 µM): 0.65
relative viability ([2]; first compound 0.02 µM): 0.834
relative viability ([2]; first compound 0.2 µM): 0.601
relative viability ([2]; first compound 0.6325 µM): 0.397
relative viability ([2]; first compound 2 µM): 0.36
relative viability (Sulindac + Dasatinib; first compound 0.08 µM): 0.613
relative viability (Sulindac + Dasatinib; first compound 0.253 µM): 0.531
relative viability (Sulindac + Dasatinib; first compound 0.8 µM): 0.362
relative viability (Sulindac + Dasatinib; first compound 2.53 µM): 0.46
relative viability (Sulindac + Dasatinib; first compound 8 µM): 0.507
